Measured values: PMC7604895, “Identification of a Novel Substrate-Derived Spermine Oxidase Inhibitor” (Acta Naturae, 2020)
Each block holds one compound with its values, some of them ahead of it.

Columns and labels:
Type in all cases: biochemical
[1] = molecular target: T1, spermine oxidase (SMOX) (Homo sapiens, UniProt Q9NWM0); assay: luminol-HRP chemiluminescent H2O2 assay with purified SMOX, […] Spm substrate (positive control inhibitor)
T1 construct: human SMOX expressed from pET15b in E. coli BL21(DE3), polyhistidine tag removed by thrombin
T1 sequence (Q9NWM0 whole entry): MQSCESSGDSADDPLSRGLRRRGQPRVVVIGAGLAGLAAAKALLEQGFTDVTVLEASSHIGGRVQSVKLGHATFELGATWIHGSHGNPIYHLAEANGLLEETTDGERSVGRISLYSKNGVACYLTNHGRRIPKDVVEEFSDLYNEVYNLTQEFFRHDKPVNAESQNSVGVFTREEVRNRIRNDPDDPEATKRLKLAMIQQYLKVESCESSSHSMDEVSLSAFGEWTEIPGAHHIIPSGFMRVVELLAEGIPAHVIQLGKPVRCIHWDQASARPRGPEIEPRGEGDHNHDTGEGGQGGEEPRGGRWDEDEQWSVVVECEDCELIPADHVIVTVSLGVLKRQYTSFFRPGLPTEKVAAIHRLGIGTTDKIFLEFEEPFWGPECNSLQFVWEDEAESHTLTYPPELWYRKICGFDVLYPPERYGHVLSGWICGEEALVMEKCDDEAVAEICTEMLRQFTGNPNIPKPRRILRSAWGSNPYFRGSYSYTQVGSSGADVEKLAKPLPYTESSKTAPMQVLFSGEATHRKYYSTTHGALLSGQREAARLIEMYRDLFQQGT

[2] = molecular target: T1, spermine oxidase (SMOX); assay: luminol-HRP chemiluminescent H2O2 assay with purified SMOX, […] Spm substrate, […] min preincubation
[3] = molecular target: T1, spermine oxidase (SMOX); assay: substrate turnover by purified SMOX, luminol-HRP chemiluminescent H2O2 detection

IC50 [1]: 100 µM
Structure (SMILES): C=C=CCNCCCCNCC=C=C [MDL72527, N1,N4-(bis(2,3-butadienyl)-1,4-butanediamine)]

IC50 [2]: 169 µM
Structure (SMILES): C=C(CN)CNCCCCNCC(=C)CN [2,11-Met2-Spm, 1,12-diamino-2,11-bis(methylidene)-4,9-diazadodecane]

Structure (SMILES): NCCCNCCCCNCCCN [Spm, spermine]
substrate turnover by purified SMOX, luminol-HRP chemiluminescent H2O2 detection [3]: SMOX activity was measured using a chemiluminescent enzyme-based assay detecting the formation of H2O2 in the presence of Spm
